Entries after “also recorded” stand apart in the source; their conditions may differ. Where a name gives a salt, the structure may show the parent alone. Read-outs that look alike come from different tables or passages of the source.
Experiments:
[1] = Equilibrium solubility in water, ambient-temperature slurry, UV measurement; type: physicochemical; conditions: for equilibrium solubility in water / solid recovered from solubility experiment (XRPD analysis) / aqueous solubility (in words): ambient temperature; for equilibrium solubility in water: UV analysis of supernatant; for solid recovered from solubility experiment (XRPD analysis) / aqueous solubility (in words): water
Protocol: Equilibrium Solubility—UV Measurement: Equilibrium solubility was determined in water using ambient-temperature slurry experiments. Samples were prepared with excess solids and agitated on a wheel for at least 3 days. Remaining solids were separated from the mixture by centrifugation. The clear supernatant was pipeted to a separate container and the concentration determined through ultraviolet (UV) spectrophotometry, diluting the sample with additional water if necessary. […] Equivalent zotepine hydrochloride salt concentrations were calculated from the Beer's Law plot generated front zotepine hydrochloride salt aqueous standards and adjusted to account for the stoichiometry of the solids utilized. Retained solids were analyzed by X-ray powder diffraction, if sufficient solids were present. Concentrations of aqueous solutions of BNV-218 were determined through ultraviolet absorbance. Ultraviolet spectrophotometry: Solutions were analyzed using a Cary 50 dual-beam spectrophotometer. They were analyzed at ambient temperature in a 1.000-cm quartz cuvette. Scans at 600 nm/min in the range of 800-200 nm were performed to determine an optimal wavelength for concentration measurement. The cuvette was washed with methanol, followed by water, and the detector was then zeroed prior to analysis of each sample. Wavelength calibration was performed using holmium oxide. The photometric accuracy was verified by measuring the intensity of the light at the detector when filters of known optical density were placed in the path of the beam.

[2] = Intrinsic dissolution in water at 25° C. (Woods apparatus pellets, UV at 302 nm); type: physicochemical; conditions: for intrinsic dissolution rate: 50 RPM, 900 mL, mean of three pellets, equivalent hydrochloride salt concentration, not normalized for surface area
Protocol: Intrinsic Dissolution: Pellets of approximately 200 mg were pressed at 3000 lbs. for 1 minute in a standard Woods apparatus, with a surface area of 0.5 cm^2. Three pellets were tested for each material, testing one material at a time. The samples were rotated in a VanKel dissolution apparatus, with automated sampling, at 50 RPM in 900 mL of water at 25° C. Aliquots were taken every two minutes and not filtered prior to analysis. Concentrations were determined through UV absorbance at approximately 302 nm, to avoid potential interference from benzoic acid. Equivalent hydrochloride salt concentrations were calculated from the Beer's Law plot generated from zotepine hydrochloride salt aqueous standards.
To determine the rate of dissolution of each material, a plot was generated of the absorbance over time for each vessel. From this plot, a linear region was chosen from the initial dissolution period of each material: starting at the first time point when the measured absorbance exceeded the minimum measured absorbance value in the Beer's Law relationship generated from zotepine hydrochloride salt aqueous standards. The end of the linear region was chosen as either 30 minutes after the first time point, or at the maximum recorded absorbance value that falls within the Beer's Law Relationship. Equivalent hydrochloride salt concentrations were plotted versus time for the regions. A straight-line was fit to the data for each vessel. The slope of these lines provides the dissolution rate for each of the materials, expressed as [μg/mL]/min. The mean of the three rates is the reported rate for each material, expressed as equivalent hydrochloride salt concentration, for direct comparison of the materials. The rates were not normalized for the surface area of the pellet.

[3] = Approximate aqueous solubility by portion-wise addition of solid to water, visual inspection
Protocol: An attempt was made to measure the aqueous solubility of zotepine hydrochloride. To a 1-dram vial was charged 99 mg of zotepine hydrochloride, and 1 mL of HPLC-grade water (obtained from Mallinckrodt) was added.
A 0.5-mL aliquot of the resulting zotepine hydrochloride aqueous solution was then charged to a second 2-dram vial, and 50 mg of zotepine hydrochloride (50 mg) was added. […] At this point, the procedure was discontinued.

[4] = cited from earlier work
[5] = pharmaceutical formulations containing the zotepine free base; cited from earlier work
[6] = listed as crystalline zotepine hydrochloride, hydrochloride

Structure (SMILES): CN(C)CCOC1=Cc2ccccc2Sc2ccc(Cl)cc21.Cl.O=C(O)c1ccccc1 [1:1 zotepine hydrochloride benzoic acid cocrystal]
- equilibrium solubility in water [1]: ~44 mg/mL
- equilibrium solubility in water ([1]; listed as 1:1 benzoic acid cocrystal): approximately 44 mg/mL
- solid recovered from solubility experiment (XRPD analysis) [1]: 1:1 benzoic acid cocrystal
- dissolution rate in water (in words) [2]: intermediate between those of zotepine free base and zotepine hydrochloride
- solid recovered after dissolution experiment (XRPD analysis) [2]: the 1:1 zotepine hydrochloride benzoic acid cocrystal
- intrinsic dissolution rate [2]: 0.3 [μg/mL]/min
- surface activity (suds on addition of solid to water, visual inspection) ([3]; water): exhibited surface activity

Structure (SMILES): CN(C)CCOC1=Cc2ccccc2Sc2ccc(Cl)cc21.CN(C)CCOC1=Cc2ccccc2Sc2ccc(Cl)cc21.Cl.Cl.O=C(O)c1ccccc1 [2:1 zotepine hydrochloride benzoic acid cocrystal]
- dissolution rate in water (in words) [2]: intermediate between those of the 1:1 zotepine hydrochloride benzoic acid cocrystal and zotepine hydrochloride
- solid recovered after dissolution experiment (XRPD analysis) [2]: converts to the 2:1 zotepine hydrochloride benzoic acid cocrystal
- intrinsic dissolution rate [2]: 2.3 [μg/mL]/min
- approximate solubility / calculated aqueous concentration from amount of solid added ([3]; water, portion-wise addition of solid, ambient temperature): ≥ 56 mg/mL

Structure (SMILES): CN(C)CCOC1=Cc2ccccc2Sc2ccc(Cl)cc21 [zotepine free base, 2-[(8-chlorodibenzo[b,f]thiepin-10-yl)oxy]-N,N-dimethylethylamine, reference compound]
- largest recorded UV absorbance at end of equilibrium solubility experiment [1]: 0.02
- aqueous solubility (in words) [1]: negligible
- solid recovered from solubility experiment (XRPD analysis) [1]: zotepine free base
- solubility in water as reported [4]: relatively insoluble in water
- bioavailability [5]: 7-13%
- dissolution rate in water (in words) [2]: too low to be calculated; also recorded: negligible; also recorded: very close to zero
- maximum UV absorbance in intrinsic dissolution experiment ([2]; 302 nm, experiment ended at 2,880 minutes): 0.02
- approximate solubility / calculated aqueous concentration from amount of solid added [3]: less than 4 mg/mL

Structure (SMILES): CN(C)CCOC1=Cc2ccccc2Sc2ccc(Cl)cc21 [zotepine hydrochloride]
- aqueous solubility (in words) [1, 6]: significantly higher
- intrinsic dissolution rate ([2]; listed as zotepine hydrochloride salt, hydrochloride): 3.9 [μg/mL]/min
- dissolution rate in water (in words) [2, 6]: significantly higher
- surface activity (suds on addition of solid to water, visual inspection) [3]: high surface activity
